# According to US20250109127A1, “METHODS OF USE OF PHENOXYPROPYLAMINE COMPOUNDS TO TREAT DEPRESSION” (Minerva Neurosciences, Inc., priority 2013, published 2025):
# “And” between values parts separate entries of the source, which are not always exact repeats. Equal values may be shown once.
# Test system: 5-HT release in the rat prefrontal cortex
# Assay: Microdialysis: 5-HT release in prefrontal cortex after I.P. administration
# Format: in vivo
# Details: for 5-HT in dialysate, MEAN / 5-HT in dialysate, individual animals: Citalopram 10 mg/kg I.P.
# Method: The aim of the study was to evaluate, using microdialysis, the effects of an intraperitoneal (I.P.) administration in rats of three different doses of SON-117 on dopamine and its metabolites, serotonin and its metabolite (5-HIAA), and norepinephrine levels in prefrontal cortex.
# Thirty-two adult male Wistar rats were used for the whole study (4 groups of eight animals planned for the study, Table 1).
# Surgery was performed on rats weighing about 300 g at the beginning of the experiments. Rats were anaesthetized with Ketamine (50 mg/kg) & Xylazine (15 mg/kg) by intramuscular administration. The animals were placed in a stereotaxic apparatus in the flat-skull position at a constant setting of −3.3 mm between ear bars and the incisor bar. The animals were treated with a local anesthesic (xylocaine 1%, Astra Zeneca) and an analgesic (Temgesic, from Schering Plough, 0.05 mg/kg, s.c.). A rostrocaudal midline incision was made with a lancet to expose the dorsal skull surface. The “stereotaxic zero” was defined by the Bregma in accordance with Paxinos and Watson's atlas (1986). A hole was drilled in the skull with a drill and the meninges were pierced with a sterile needle to implant a CMA12 guide cannula which later received the dialysis probe.
# Coordinates used for implanting guide cannula in prefrontal cortex from Bregma were anteroposterior 3.7 mm, mediolateral 0.8 mm, and dorsoventral −2 mm (top of the probe was at −5 mm). The guide cannula was fixed to the skull with two stainless steel screws (1.88 mm outside diameter) anchored. An application of dental cement was added. A plastic collar allowed each animal to be tethered to a Swivel assembly of the CMA 120 awake animal system. Following surgery, rats were kept in individual cages and allowed to recover for a minimum of 3-5 days before the experimentation. The rats were handled and put in plastic bowl for 10 min at least every day to habituate the animals to their new environment for the dialysis. An I.P. administration with saline was also performed every day.
# Dialysis probes (CMA12/3 mm, membrane, 20 kD cut-off, Carnegie Medicine, Stockholm, Sweden), were carefully washed before inserting into the guide cannula. The wash was performed with the artificial cerebrospinal fluid (aCSF) medium (NaCl 147 mM, KCl 2.7 mM, CaCl2 1.2 mM, MgCl2 0.85 mM) at room temperature. The dialysis system was then equilibrated at 20° C. at a perfusion rate of 1 μl/min with a Carnegie pump (CMA100). All catheters (FEP tubing, internal volume of 1.2 μl/10 cm, and tubing adaptors) used for microdialysis were treated in the same conditions.
# The probes duly prepared were inserted into the guide cannula and the CMA120 Swivel assembly secured to the animal using a plastic collar. Flow through the dialysis probe with aCSF was maintained at a rate of 1 μl/min during the whole experimentation. The first four fractions (corresponding to 2 hours) were discarded to avoid the effects of parenchymal disturbance and to ensure that an approximate steady-state level was reached. Fractions were then collected over a period of 8.5 h during which time the animals remained quiet. The dialysates were automatically collected with an autosampler (microfraction collector CMA 140, Carnegie Medicin) and stored at −80° C. until analysis. […] Perfusion was then maintained for 7 hours with aCSF. The dialysates (30 μl) were collected into 300 μl vials, transferred into dry ice and then kept frozen (−80° C.) until analysis. Frozen samples were shipped to a partner for analysis. At the end of the microdialysis study, a PBS with colored ink was perfused through the probe in order to visualize the dialyzed area.
# Catecholamine assay: Concentrations of dopamine, DOPAC, HVA, 5-HIAA, 5-HT, and norepinephrin were determined for each sample by HPLC coupled with electrochemical detection. […]
compound,measurement,setting,value
"CN(C)CCCC1(c2ccc(F)cc2)OCc2cc(C#N)ccc21 (centres unmarked) [Citalopram, citalopram, reference compound]","5-HT in dialysate, MEAN",T0-T30 min,85.23 % of respective basal
same,"5-HT in dialysate, MEAN",T30-T1 h,218.92 % of respective basal
same,"5-HT in dialysate, individual animals",T30-T1 h,203.59 % of respective basal and 157.98 % of respective basal and 133.67 % of respective basal and 139.45 % of respective basal and 219.64 % of respective basal and 344.10 % of respective basal and 285.92 % of respective basal and 267.00 % of respective basal
same,"5-HT in dialysate, MEAN",T1 h 30-T2 h,170.67 % of respective basal
same,"5-HT in dialysate, individual animals",T1 h 30-T2 h,103.23 % of respective basal and 101.96 % of respective basal and 153.81 % of respective basal and 83.91 % of respective basal and 207.6 % of respective basal and 351.79 % of respective basal and 164.94 % of respective basal and 198.14 % of respective basal
same,"5-HT in dialysate, MEAN",T1 h-T1 h 30,171.48 % of respective basal
same,"5-HT in dialysate, individual animals",T1 h-T1 h 30,162.56 % of respective basal and 151.29 % of respective basal and 167.46 % of respective basal and 128.56 % of respective basal and 232.85 % of respective basal and 235.03 % of respective basal and 158.66 % of respective basal and 135.42 % of respective basal
same,"5-HT in dialysate, MEAN",T2 h 30-T3 h,116.57 % of respective basal
same,"5-HT in dialysate, individual animals",T2 h 30-T3 h,109.55 % of respective basal and 38.11 % of respective basal and 79.68 % of respective basal and 57.89 % of respective basal and 152.73 % of respective basal and 299.86 % of respective basal and 89.94 % of respective basal and 104.76 % of respective basal
same,"5-HT in dialysate, MEAN",T2 h-T2 h 30,138.70 % of respective basal
same,"5-HT in dialysate, individual animals",T2 h-T2 h 30,97.34 % of respective basal and 43.80 % of respective basal and 100.91 % of respective basal and 83.82 % of respective basal and 153.02 % of respective basal and 315.50 % of respective basal and 215.03 % of respective basal and 100.89 % of respective basal
same,"5-HT in dialysate, MEAN",T3 h 30-T4 h,126.49 % of respective basal
same,"5-HT in dialysate, individual animals",T3 h 30-T4 h,93.89 % of respective basal and 20.30 % of respective basal and 84.02 % of respective basal and 59.96 % of respective basal and 97.06 % of respective basal and 476.98 % of respective basal and 67.07 % of respective basal and 112.62 % of respective basal
same,"5-HT in dialysate, MEAN",T3 h-T3 h 30,136.30 % of respective basal
same,"5-HT in dialysate, individual animals",T3 h-T3 h 30,88.23 % of respective basal and 47.91 % of respective basal and 85.22 % of respective basal and 48.54 % of respective basal and 108.35 % of respective basal and 516.29 % of respective basal and 70.00 % of respective basal and 125.89 % of respective basal
same,"5-HT in dialysate, MEAN",T4 h 30-T5 h,90.86 % of respective basal
same,"5-HT in dialysate, individual animals",T4 h 30-T5 h,89.09 % of respective basal and 13.90 % of respective basal and 77.20 % of respective basal and 44.62 % of respective basal and 120.70 % of respective basal and 212.73 % of respective basal and 55.57 % of respective basal and 113.09 % of respective basal
same,"5-HT in dialysate, MEAN",T4 h-T4 h 30,97.87 % of respective basal
same,"5-HT in dialysate, individual animals",T4 h-T4 h 30,128.06 % of respective basal and 25.07 % of respective basal and 73.75 % of respective basal and 50.85 % of respective basal and 85.54 % of respective basal and 261.90 % of respective basal and 76.87 % of respective basal and 80.93 % of respective basal
same,"5-HT in dialysate, MEAN",T5 h 30-T6 h,75.87 % of respective basal
same,"5-HT in dialysate, individual animals",T5 h 30-T6 h,78.66 % of respective basal and 7.95 % of respective basal and 69.20 % of respective basal and 42.04 % of respective basal and 72.98 % of respective basal and 142.95 % of respective basal and 74.38 % of respective basal and 118.79 % of respective basal
same,"5-HT in dialysate, MEAN",T5 h-T5 h 30,92.05 % of respective basal
same,"5-HT in dialysate, individual animals",T5 h-T5 h 30,77.74 % of respective basal and 11.81 % of respective basal and 73.01 % of respective basal and 50.89 % of respective basal and 87.24 % of respective basal and 227.76 % of respective basal and 54.20 % of respective basal and 153.73 % of respective basal
same,"5-HT in dialysate, MEAN",T6 h 30-T7 h,76.63 % of respective basal
same,"5-HT in dialysate, individual animals",T6 h 30-T7 h,87.93 % of respective basal and 11.23 % of respective basal and 60.60 % of respective basal and 41.05 % of respective basal
same,"5-HT in dialysate, MEAN",T6 h-T6 h 30,79.25 % of respective basal
same,"5-HT in dialysate, individual animals",T6 h-T6 h 30,70.23 % of respective basal and 12.51 % of respective basal and 74.22 % of respective basal and 42.28 % of respective basal and 81.01 % of respective basal and 173.04 % of respective basal and 63.01 % of respective basal and 117.68 % of respective basal
same,"5-HT in dialysate, MEAN",T-30 min-T0 (pre-dose),87.59 % of respective basal
same,"5-HT in dialysate, MEAN",T-1 h 30-T-1 h (pre-dose),108.45 % of respective basal
same,"5-HT in dialysate, MEAN",T-1 h-T-30 min (pre-dose),105.84 % of respective basal
same,"5-HT concentrations in prefrontal cortex, significant increase","citalopram 10 mg/kg IP, from 1 h to 2 h",219%
same,"5-HT release, maximum increase observed","citalopram 10 mg/kg, at 1 h",218%
